Measured values: publication PMC3038857, “Using Nuclear Receptor Activity to Stratify Hepatocarcinogens” (PLoS ONE, 2011)

Experiments:
[1] = target: T1, AHR (aryl hydrocarbon receptor) (Homo sapiens, UniProt P35869); assay: ATG_Ahr_CIS: Factorial reporter gene assay (multiplexed transcription reporter, HepG2); format: cell-based; conditions: HepG2
T1 construct: endogenous in cells; host or cells: HepG2
T1 sequence (P35869 11-848): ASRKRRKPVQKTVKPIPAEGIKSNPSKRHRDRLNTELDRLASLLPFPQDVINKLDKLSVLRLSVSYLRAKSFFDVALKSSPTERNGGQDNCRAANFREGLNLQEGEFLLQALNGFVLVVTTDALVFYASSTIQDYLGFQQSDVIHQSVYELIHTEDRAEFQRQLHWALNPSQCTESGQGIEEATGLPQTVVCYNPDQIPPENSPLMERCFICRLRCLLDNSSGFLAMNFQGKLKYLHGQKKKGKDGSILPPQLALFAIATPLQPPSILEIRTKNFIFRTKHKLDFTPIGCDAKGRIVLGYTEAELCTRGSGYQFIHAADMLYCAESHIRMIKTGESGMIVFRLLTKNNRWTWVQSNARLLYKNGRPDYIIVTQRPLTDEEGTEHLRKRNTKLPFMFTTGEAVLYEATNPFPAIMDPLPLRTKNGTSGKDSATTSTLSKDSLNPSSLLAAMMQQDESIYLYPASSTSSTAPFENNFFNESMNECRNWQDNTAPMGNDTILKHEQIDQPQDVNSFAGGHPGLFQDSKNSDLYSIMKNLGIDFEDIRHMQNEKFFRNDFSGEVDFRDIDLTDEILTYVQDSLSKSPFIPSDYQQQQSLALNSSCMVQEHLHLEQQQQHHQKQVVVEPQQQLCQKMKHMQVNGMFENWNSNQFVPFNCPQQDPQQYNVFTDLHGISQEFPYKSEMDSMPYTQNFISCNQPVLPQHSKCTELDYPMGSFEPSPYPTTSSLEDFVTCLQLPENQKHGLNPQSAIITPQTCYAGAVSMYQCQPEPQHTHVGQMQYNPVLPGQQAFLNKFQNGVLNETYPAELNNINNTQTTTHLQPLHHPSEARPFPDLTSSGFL
Method: (§1) A multiple reporter transcription unit (MRTU) library consisting of 48 transcription factor binding sites was transfected into the HepG2 human liver hepatoma cell line. In addition to the cis-acting reporter genes (CIS), a modification of the approach was used to generate a trans-system (TRANS) with a mammalian one-hybrid assay consisting of an additional 25 MRTU library reporting the activity of nuclear receptor super-family members. […] These assays were performed by Attagene Inc. (Morrisville NC) under contract to EPA.
(§2) In addition to the cis-acting reporter genes (CIS), a modification of the approach was used to generate a trans-system (TRANS) with a mammalian one-hybrid assay consisting of an additional 25 MRTU library reporting the activity of nuclear receptor super-family members. […] Chemicals were then tested in the CIS and TRANS assays at seven concentrations starting at the MTC and followed by three-fold serial dilutions. These assays were performed by Attagene Inc. (Morrisville NC) under contract to EPA. Detailed description of the methods, data and analysis methods for this dataset will be presented in a separate publication.

CYP2B6 = assay: CLZD_CYP2B6: Change in expression of CYP2B6 (primary human hepatocytes); format: cell-based; conditions: 24 hr
Summary of the method: (§3)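 Cultured primary human hepatocytes treated with chemicals for 6, 24 or 48 hr across five concentrations spanning 0.004-40 µM, then transcript level measured by quantitative nuclease protection in a multiplexed format.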

CYP3A4 = assay: CLZD_CYP3A4: Change in expression of CYP3A4 (primary human hepatocytes); format: cell-based; conditions: 24 hr
Summary of the method: as §3

Mouse Liver = conditions: chronic mouse study, liver; ref ToxRefDB; cited from earlier work
Rat Liver [2] = conditions: chronic rat study, liver; ref ToxRefDB; cited from earlier work
Rat Liver [3] = conditions: chronic rat study, liver; ref ToxRefDB; cited from earlier work; remark: listed apart in the source
Rat Liver [4] = conditions: chronic rat study, liver; ref ToxRefDB; cited from earlier work; remark: listed apart in the source
PXR (NR1I2) [5] = target: T2, PXR (NR1I2) (Homo sapiens, UniProt O75469); assay: ATG_PXR_TRANS: Factorial reporter gene assay (HepG2); format: cell-based; parameters: endogenous in cells; host or cells: HepG2; conditions: HepG2
T2 sequence (O75469 1-434): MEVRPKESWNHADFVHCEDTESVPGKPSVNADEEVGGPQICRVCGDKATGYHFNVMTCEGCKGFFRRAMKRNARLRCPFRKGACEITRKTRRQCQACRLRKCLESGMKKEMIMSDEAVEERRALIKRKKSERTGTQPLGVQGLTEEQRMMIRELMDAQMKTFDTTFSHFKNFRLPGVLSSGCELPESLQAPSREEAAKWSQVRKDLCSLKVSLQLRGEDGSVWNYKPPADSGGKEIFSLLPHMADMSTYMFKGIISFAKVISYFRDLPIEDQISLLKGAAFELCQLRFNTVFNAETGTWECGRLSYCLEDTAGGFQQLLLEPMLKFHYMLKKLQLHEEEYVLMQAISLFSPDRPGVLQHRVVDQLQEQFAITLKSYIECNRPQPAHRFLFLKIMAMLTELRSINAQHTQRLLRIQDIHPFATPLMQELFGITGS
Summary of the method: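 Seven concentrations per chemical, three-fold dilutions down from the MTC, were tested in HepG2 hepatoma cells. Those cells carried a multiple reporter transcription unit library, read either as cis transcription-factor-site reporters or as a trans mammalian one-hybrid panel for nuclear receptors.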

PXR (NR1I2) [6] = target: T2, PXR (NR1I2); assay: ATG_PXRE_CIS: Factorial reporter gene assay (HepG2); format: cell-based; parameters: endogenous in cells; host or cells: HepG2; conditions: HepG2
Summary of the method: (§4)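 Compounds at seven concentrations (top at MTC, threefold serial) were applied to transfected HepG2 hepatoma cells, with PXRE scored by cis-element reporters and ERRg, FXR and PPARg scored by trans one-hybrid nuclear receptor reporters.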

[7] = target: T3, PPARG (peroxisome proliferator-activated receptor gamma) (Homo sapiens, UniProt P37231); assay: ATG_PPARg_TRANS: Factorial reporter gene assay (HepG2); format: cell-based; conditions: HepG2
T3 construct: expressed in transfected cells; host or cells: HepG2
T3 sequence (P37231 1-505): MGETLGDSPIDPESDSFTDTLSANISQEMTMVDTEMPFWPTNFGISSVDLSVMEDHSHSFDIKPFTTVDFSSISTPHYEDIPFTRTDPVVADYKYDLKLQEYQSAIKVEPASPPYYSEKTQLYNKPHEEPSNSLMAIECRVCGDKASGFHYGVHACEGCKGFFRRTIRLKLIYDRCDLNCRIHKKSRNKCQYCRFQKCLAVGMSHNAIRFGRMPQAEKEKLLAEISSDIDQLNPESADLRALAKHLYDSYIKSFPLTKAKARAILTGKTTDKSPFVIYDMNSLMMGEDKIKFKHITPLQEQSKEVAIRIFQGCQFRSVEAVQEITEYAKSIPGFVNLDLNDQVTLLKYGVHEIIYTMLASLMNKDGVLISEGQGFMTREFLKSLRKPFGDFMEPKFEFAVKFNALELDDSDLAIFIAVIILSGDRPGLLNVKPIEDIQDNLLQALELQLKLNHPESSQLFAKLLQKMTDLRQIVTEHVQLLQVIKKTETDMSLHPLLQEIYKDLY
Summary of the method: as §4

PXR Human (NR1I2) = target: T4, PXR Human (NR1I2) (Homo sapiens, UniProt O75469); assay: NCGC_PXR_Agonist_human: GAL4 BLAM Reporter gene assay: PXR Human; format: cell-based; conditions: agonist mode
T4 sequence (O75469 146-434 limits assumed): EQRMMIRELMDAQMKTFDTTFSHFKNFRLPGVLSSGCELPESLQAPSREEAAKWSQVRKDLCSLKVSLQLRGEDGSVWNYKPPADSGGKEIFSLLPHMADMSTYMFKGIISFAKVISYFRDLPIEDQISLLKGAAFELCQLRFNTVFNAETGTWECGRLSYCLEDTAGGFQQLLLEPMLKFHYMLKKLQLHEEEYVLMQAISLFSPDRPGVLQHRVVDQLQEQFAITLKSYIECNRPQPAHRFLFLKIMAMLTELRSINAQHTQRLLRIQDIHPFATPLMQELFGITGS
Method: These assays measure binding constants and enzyme inhibition values for nuclear receptors. The targets include [drawing 67] , [drawing 68] , [drawing 69] , [drawing 70] , [drawing 71] , [drawing 72] , [drawing 73] , [drawing 74] , [drawing 75] and [drawing 76] . Each of the nuclear receptor targets was measured in agonist mode. Assays were run at the NIH Chemical Genomics Center (Rockville, MD).
Cell-based HTS Assays: These assays measuring binding constants and enzyme inhibition values for nuclear receptors. The targets include AR, ER, FXR, LXR, PPARα, PPARδ, PPARγ, RXRα, RXRβ and PXR. Each of the nuclear receptor targets was measured in both agonist and antagonist mode, but the antagonist data is still undergoing analysis due to possible interference between cytotoxicity and assay activity, so antagonist mode data were not used in the present analysis. Assays were run at the NIH Chemical Genomics Center (Rockville, MD) as part of the Tox21 collaboration. […] The R^2 was required to be ≥0.5. Values where only the highest concentration exceeded 50% activity were excluded to eliminate weak or false positives. Detailed description of the methods, data and analysis methods for this dataset will be presented in a separate publication.

PXR (NR1I2) [8] = target: T2, PXR (NR1I2); assay: NVS_NR_hPXR: Human PXR Fluormone PXR (SXR) green (cell-free HTS); format: binding
Excerpt: These are a collection of biochemical assays measuring binding constants and enzyme inhibition values. Chemicals were initially screened at a single concentration in duplicate wells at a concentration of 10 [drawing 63] M for cytochrome P-450 assays and 25 [drawing 64] M for all others. […] These assays were run by Caliper Life Sciences (Hanover, MD) under contract to EPA. Short assay descriptions are available at: http://www.caliperls.com/products/contract-research/in-vitro/.
Cell-free HTS Assays: A collection of biochemical assays measuring binding constants and enzyme inhibition values. […] These assays were run by Caliper Life Sciences (Hanover, MD) under contract to EPA. Short assay descriptions are available at http://www.caliperls.com/products/contract-research/in-vitro/. Values for all endpoints were imported into GeneData Screener (Basel, Switzerland) and normalised to solvent controls from the same plate as the tested compounds and expressed as percent of neutral control. Concentration-response curves were fit in GeneData Screener (Basel, Switzerland) Condeseo module using the Hill equation and AC50 values were determined. […] Detailed description of the methods, data and analysis methods for this dataset are described in a separate publication.

[9] = target: T5, ESR1 (estrogen receptor 1) (Homo sapiens, UniProt P03372); assay: ATG_ERa_TRANS: Factorial reporter gene assay (HepG2); format: cell-based; conditions: HepG2
T5 construct: expressed in transfected cells; host or cells: HepG2
Method: as §1, §2

CYP1A2 = assay: CLZD_CYP1A2: Change in expression of CYP1A2 (primary human hepatocytes); format: cell-based; conditions: 24 hr
Summary of the method: as §3

T5 sequence (P03372 whole entry): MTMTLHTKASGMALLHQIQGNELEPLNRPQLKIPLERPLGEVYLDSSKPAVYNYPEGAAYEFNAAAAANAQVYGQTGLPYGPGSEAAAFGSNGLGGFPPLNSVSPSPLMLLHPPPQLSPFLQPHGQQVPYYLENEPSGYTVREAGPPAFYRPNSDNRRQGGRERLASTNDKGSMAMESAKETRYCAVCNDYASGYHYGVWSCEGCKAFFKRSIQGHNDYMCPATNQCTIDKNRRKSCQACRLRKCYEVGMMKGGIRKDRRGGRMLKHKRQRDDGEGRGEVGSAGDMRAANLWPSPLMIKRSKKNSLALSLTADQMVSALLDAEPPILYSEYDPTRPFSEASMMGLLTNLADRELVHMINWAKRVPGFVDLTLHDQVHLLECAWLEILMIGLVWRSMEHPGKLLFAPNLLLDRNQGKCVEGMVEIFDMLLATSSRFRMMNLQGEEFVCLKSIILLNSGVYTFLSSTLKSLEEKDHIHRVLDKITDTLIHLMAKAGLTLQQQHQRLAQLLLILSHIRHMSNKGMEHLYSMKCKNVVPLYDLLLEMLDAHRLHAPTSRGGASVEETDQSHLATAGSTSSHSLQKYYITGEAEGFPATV

| SMILES | ATG_Ahr_CIS [1] | CLZD_CYP2B6_24 (CYP2B6) | CLZD_CYP3A4_24 (CYP3A4) | CHR_Mouse_Liver_1_AnyLesion (Mouse Liver) | CHR_Rat_Liver_1_AnyLesion (Rat Liver [2]) | CHR_Rat_Liver_2_PreneoplasticLesion (Rat Liver [3]) | CHR_Rat_Liver_3_NeoplasticLesion (Rat Liver [4]) | ATG_PXR_TRANS (PXR (NR1I2) [5]) | ATG_PXRE_CIS (PXR (NR1I2) [6]) | ATG_PPARg_TRANS [7] | NCGC_PXR_Agonist_human (PXR Human (NR1I2)) | NVS_NR_hPXR (PXR (NR1I2) [8]) | ATG_ERa_TRANS [9] | CLZD_CYP1A2_24 (CYP1A2) |
| --- | --- | --- | --- | --- | --- | --- | --- | --- | --- | --- | --- | --- | --- | --- |
| COCC(=O)N(c1c(C)cccc1C)C(C)C(=O)OC (stereo not drawn) [row 196] | 4.149 | 5.11 | 4.985 | 6 | 6 | 0 | 0 | 4.854 | 4.796 | – | – | – | – | – |
| CNC(=S)[S-].O.O.O.[Na+] [row 197] | 4.444 | – | – | – | – | – | – | – | 4.167 | 4.569 | 4.503 | – | – | – |
| CCCCOC(=O)c1ccccc1C(=O)O [row 215] | 4.119 | – | – | – | – | – | – | – | – | – | – | 4.801 | – | – |
| CCCCC(C#N)(Cn1cncn1)c1ccc(Cl)cc1 (stereo not drawn) [row 217] | – | 4.948 | 5.217 | 6 | 6 | 0 | 0 | – | 4.886 | – | – | – | 4.398 | 5.223 |
| CCCN(CCC)c1c([N+](=O)[O-])cc(S(N)(=O)=O)cc1[N+](=O)[O-] [row 224] | – | 4.989 | 4.897 | – | 0 | 0 | 0 | 5.538 | 5.921 | – | 5.133 | 5.395 | – | – |
